Patent US20260042755A1, “GPR6 INVERSE AGONISTS” (MapLight Therapeutics, Inc., priority 2022, published 2026)

Experiments:
[1] = target: T1, GPR6 (Homo sapiens, UniProt P46095); experiment: GPR6 antagonist functional cAMP assay (LANCE Ultra cAMP TR-FRET, CHO cells stably expressing GPR6); format: cell-based
T1 construct: expressed in transfected cells; host or cells: CHO cells
In short: (§1)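 Read-out was TR-FRET cAMP signal at 665 nm after 1 h at room temperature, following 45 min compound exposure at 37 °C. Assay buffer contained 0.1% BSA and 150 μM Ro 20-1724. Antagonist IC50s were fitted with a 4-parameter logistic against DMSO and reference controls.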

[2] = target: T2, GPR3 (Homo sapiens, UniProt P46089); experiment: GPR3 antagonist functional cAMP assay (LANCE Ultra cAMP TR-FRET, CHO cells stably expressing GPR3); format: cell-based
T2 construct: expressed in transfected cells; host or cells: CHO cells
In short: as §1

[3] = CHO cells stably expressing GPR6, cAMP assay
[4] = CHO cells stably expressing GPR3, cAMP assay
[5] = CHO cells stably expressing GPR6, cAMP assay (Example 24)
[6] = CHO cells stably expressing GPR3, cAMP assay (Example 24)
[7] = procedure as described in Example 24

T1 sequence (P46095 whole entry): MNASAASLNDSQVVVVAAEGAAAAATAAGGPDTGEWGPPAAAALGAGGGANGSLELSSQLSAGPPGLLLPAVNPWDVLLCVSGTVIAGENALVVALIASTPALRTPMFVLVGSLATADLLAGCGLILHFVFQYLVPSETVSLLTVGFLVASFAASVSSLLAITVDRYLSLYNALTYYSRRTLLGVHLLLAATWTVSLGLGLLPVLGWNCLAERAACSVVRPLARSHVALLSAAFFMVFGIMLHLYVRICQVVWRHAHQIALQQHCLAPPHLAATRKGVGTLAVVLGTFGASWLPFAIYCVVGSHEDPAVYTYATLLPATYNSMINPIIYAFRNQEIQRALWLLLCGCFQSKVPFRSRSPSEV
T2 sequence (P46089 whole entry, species assumed): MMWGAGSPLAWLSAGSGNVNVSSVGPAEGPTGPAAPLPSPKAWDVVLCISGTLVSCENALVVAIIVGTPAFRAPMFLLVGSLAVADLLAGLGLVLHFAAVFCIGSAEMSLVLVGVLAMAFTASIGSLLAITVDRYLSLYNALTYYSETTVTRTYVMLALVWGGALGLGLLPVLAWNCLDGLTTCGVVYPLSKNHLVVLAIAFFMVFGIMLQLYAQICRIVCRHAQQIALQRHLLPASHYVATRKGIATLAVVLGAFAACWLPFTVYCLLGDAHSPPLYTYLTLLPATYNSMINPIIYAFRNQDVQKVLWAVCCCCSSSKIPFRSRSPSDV

| Compound | IC50 ([1]; procedure of Example 24) | IC50 ([2]; procedure of Example 24) | IC50 [1, 5] | IC50 [2, 6] | other results |
| --- | --- | --- | --- | --- | --- |
| CC(=O)N1CCc2nc(N3CCC(Oc4ccc(F)cc4F)CC3)c(C3CCN(CC(F)(F)F)CC3)nc2C1 [Compound 496, 1-{2-[4-(2,4-difluorophenoxy)-1-piperidyl]-3-[1-(2,2,2-trifluoroethyl)-4-piperidyl]-5,6,7,8-tetrahydro-1,4,6-triaza-6-naphthyl}-1-ethanone] |  |  |  |  | IC50 [1, 3]: 1000 to 30000 nM; IC50 [2, 4]: 1000 to 30000 nM |
| CC(C)(O)C(C)(O)c1cc2nc(N3CCN(Cc4ccc(F)cc4F)CC3)c(-c3cnn(C4CC4)c3)nc2cn1 (centres unmarked) [Compound 605, 2-[3-(1-cyclopropyl-4-pyrazolyl)-2-{4-[(2,4-difluorophenyl)methyl]-1-piperazinyl}-1,4,6-triaza-7-naphthyl]-3-methyl-2,3-butanediol] |  |  |  |  | IC50 [1, 3]: 100 to 1000 nM; IC50 [2, 4]: 1000 to 30000 nM |
| CC(=O)N1CCc2nc(N3CCN(Cc4ccc(F)c(F)c4)CC3)c(-c3cnn(C)c3)nc2C1 [Compound 321, 1-(2-{4-[(3,4-difluorophenyl)methyl]piperazin-1-yl}-3-(1-methyl-1H-pyrazol-4-yl)-5H,6H,7H,8H-pyrido[3,4-b]pyrazin-6-yl)ethan-1-one] | 1000 to 30000 nM | 1000 to 30000 nM |  |  |  |
| C[C@@H]1CN(Cc2ccc(F)cc2F)CCN1c1nc2ccncc2nc1-c1cnn(C)c1 (single isomer, unassigned) [Compound 224] |  |  | 1000 to 30000 nM | 1000 to 30000 nM |  |
| CC(=O)N1CCc2nc(N3CCN(C(=O)c4cc(F)cc(F)c4)CC3)c(-c3cnn(C)c3)nc2C1 [Compound 285, 1-{2-[4-(3,5-difluorobenzoyl)piperazin-1-yl]-3-(1-methyl-1H-pyrazol-4-yl)-5H,6H,7H,8H-pyrido[3,4-b]pyrazin-6-yl}ethan-1-one] | ≥ 30000 nM | 1000 to 30000 nM |  |  |  |
| Cn1cc(-c2nc3cnccc3nc2N2CCN(Cc3ccc(F)cc3F)C(=O)C2)cn1 [Compound 127, 1-[(2,4-difluorophenyl)methyl]-4-[3-(1-methyl-1H-pyrazol-4-yl)pyrido[3,4-b]pyrazin-2-yl]piperazin-2-one] |  |  | ≥ 30000 nM | ≥ 30000 nM |  |
| COc1cncc(-c2nc3cnc(C)cc3nc2N2CCC(Oc3ccc(F)cc3F)CC2)n1 [Compound 230, 2-{2-[4-(2,4-difluorophenoxy)piperidin-1-yl]-7-methylpyrido[3,4-b]pyrazin-3-yl}-6-methoxypyrazine] |  |  | 1000 to 30000 nM | 1000 to 30000 nM |  |
| CC(=O)N1CCc2nc(N3CCC(Oc4ccc(F)cc4F)CC3)c(C3CCCC(=O)N3)nc2C1 (centres unmarked) [Compound 258, 6-{6-acetyl-2-[4-(2,4-difluorophenoxy)piperidin-1-yl]-5H,6H,7H,8H-pyrido[3,4-b]pyrazin-3-yl}piperidin-2-one] |  |  | ≥ 30000 nM | ≥ 30000 nM |  |
| Fc1ccc(-c2ncc3n2CCN(c2nc4ccncc4nc2-c2cn[nH]c2)C3)c(F)c1 [Compound 130, 4-{2-[3-(2,4-difluorophenyl)-5H,6H,7H,8H-imidazo[1,5-a]pyrazin-7-yl]pyrido[3,4-b]pyrazin-3-yl}-1H-pyrazole] |  |  | ≥ 30000 nM | ≥ 30000 nM |  |
| CC(C)(O)C(O)c1cc2nc(-c3cnn(C(F)F)c3)c(N3CCN(Cc4ccc(F)cc4F)CC3)nc2cn1 (single isomer, unassigned) [Compound 586] |  |  |  |  | IC50 [1, 3]: < 100 nM; IC50 [2, 4]: 100 to 1000 nM |
| CN(c1ccc(F)cc1F)C1CCN(c2nc3ccncc3nc2-c2cn[nH]c2)CC1 [Compound 55, 1-(3-(1H-pyrazol-4-yl)pyrido[3,4-b]pyrazin-2-yl)-N-(2,4-difluorophenyl)-N-methylpiperidin-4-amine] |  |  |  |  | IC50 [1, 7]: 1000 to 30000 nM; IC50 [2, 7]: 1000 to 30000 nM |
| COCCN1CCc2nc(N3CCC(Oc4ccc(F)cc4F)CC3)c(-c3cn[nH]c3)nc2C1 [Compound 143, 4-(2,4-difluorophenoxy)-1-[6-(2-methoxyethyl)-3-(1H-pyrazol-4-yl)-5H,6H,7H,8H-pyrido[3,4-b]pyrazin-2-yl]piperidine] |  |  | 100 to 1000 nM | 1000 to 30000 nM |  |
| COc1ncc(-c2nc3c(nc2N2CCC(Oc4ccc(F)cc4F)CC2)CCN(C(C)=O)C3)nc1OC [Compound 215, 1-{2-[4-(2,4-difluorophenoxy)piperidin-1-yl]-3-(5,6-dimethoxypyrazin-2-yl)-5H,6H,7H,8H-pyrido[3,4-b]pyrazin-6-yl}ethan-1-one] |  |  | 100 to 1000 nM | 1000 to 30000 nM |  |
| CNC(=O)Cn1cc(-c2nc3c(nc2N2CCC(Oc4ccc(F)cc4F)CC2)CCN(C(C)=O)C3)cn1 [Compound 25, 2-(4-{6-acetyl-2-[4-(2,4-difluorophenoxy)piperidin-1-yl]-5H,6H,7H,8H-pyrido[3,4-b]pyrazin-3-yl}-1H-pyrazol-1-yl)-N-methylacetamide] |  |  |  |  | IC50 [1, 7]: 1000 to 30000 nM; IC50 [2, 7]: 1000 to 30000 nM |
| CC(=O)N1CCc2nc(N3CCN(C(=O)c4ccc(F)cc4C#N)CC3)c(-c3cnn(C)c3)nc2C1 [Compound 286, 2-{4-[6-acetyl-3-(1-methyl-1H-pyrazol-4-yl)-5H,6H,7H,8H-pyrido[3,4-b]pyrazin-2-yl]piperazine-1-carbonyl}-5-fluorobenzonitrile] | 1000 to 30000 nM | ≥ 30000 nM |  |  |  |
| CCn1cc(-c2nc3cnc(C(O)C(C)(C)O)cc3nc2N2CCN(Cc3ccc(F)cc3F)CC2)cn1 (centres unmarked) [Compound 270, 1-(2-{4-[(2,4-difluorophenyl)methyl]piperazin-1-yl}-3-(1-ethyl-1H-pyrazol-4-yl)pyrido[3,4-b]pyrazin-7-yl)-2-methylpropane-1,2-diol] | 100 to 1000 nM | 1000 to 30000 nM |  |  |  |

The next lines start with results.

| IC50 ([1]; procedure of Example 24) | IC50 ([2]; procedure of Example 24) | IC50 [1, 5] | IC50 [2, 6] | Compound | other results |
| --- | --- | --- | --- | --- | --- |
| ≥ 30000 nM | 100 to 1000 nM |  |  | CC(=O)N1CCc2nc(N3CCCC(Oc4ccccc4F)C3)c(-c3cnn(C)c3)nc2C1 (centres unmarked) [Compound 336, 1-{2-[3-(2-fluorophenoxy)piperidin-1-yl]-3-(1-methyl-1H-pyrazol-4-yl)-5H,6H,7H,8H-pyrido[3,4-b]pyrazin-6-yl}ethan-1-one] |  |
|  |  | 100 to 1000 nM | 1000 to 30000 nM | CCn1cc(-c2nc3c(nc2N2CCC(Oc4ccc(F)cc4F)CC2)CCN(C(=O)C(O)CO)C3)cn1 (centres unmarked) [Compound 484, 1-{2-[4-(2,4-difluorophenoxy)piperidin-1-yl]-3-(1-ethyl-1H-pyrazol-4-yl)-5H,6H,7H,8H-pyrido[3,4-b]pyrazin-6-yl}-2,3-dihydroxypropan-1-one] |  |
| 100 to 1000 nM | 1000 to 30000 nM |  |  | Cn1cc(-c2nc3cnc([C@@H](O)C(C)(C)F)cc3nc2N2CCC(Oc3ccc(F)cc3F)CC2)cn1 (single isomer, unassigned) [Compound 744] |  |
| 1000 to 30000 nM | 1000 to 30000 nM |  |  | CC(=O)N1CCc2nc(N3CC[C@H](Oc4ccc(F)cc4F)[C@H](F)C3)c(-c3cnn(C)c3)nc2C1 (single isomer, unassigned) [Compound 334] |  |
| < 100 nM | 1000 to 30000 nM |  |  | CC(C)(O)[C@@H](O)c1cc2nc(N3CCC(=Cc4ccc(F)cc4F)CC3)c(-c3cnn(CF)c3)nc2cn1 (single isomer, unassigned) [Compound 785] |  |
| 1000 to 30000 nM | 1000 to 30000 nM |  |  | CC(=O)N1CCc2nc(N3CCC(Oc4ccc(F)cc4)C3)c(-c3cnn(C)c3)nc2C1 (centres unmarked) [Compound 341, 1-{2-[3-(4-fluorophenoxy)pyrrolidin-1-yl]-3-(1-methyl-1H-pyrazol-4-yl)-5H,6H,7H,8H-pyrido[3,4-b]pyrazin-6-yl}ethan-1-one] |  |
|  |  | 100 to 1000 nM | 1000 to 30000 nM | Nc1cc2nc(N3CCC(Oc4ccc(F)cc4F)CC3)c(-c3cnn(C(F)F)c3)nc2cn1 [Compound 460, 3-[1-(difluoromethyl)-1H-pyrazol-4-yl]-2-[4-(2,4-difluorophenoxy)piperidin-1-yl]pyrido[3,4-b]pyrazin-7-amine] |  |
| 100 to 1000 nM | 100 to 1000 nM |  |  | CC(C)(O)[C@@H](O)c1cc2nc(N3CCC(Cc4ccc(F)cc4F)CC3)c(-c3cnn(CF)c3)nc2cn1 (single isomer, unassigned) [Compound 727] |  |
|  |  | 1000 to 30000 nM | 1000 to 30000 nM | CC(=O)N1CCc2nc(N3CCC(C(=O)N(C)Cc4ccc(F)cc4F)C3)c(-c3cnn(C)c3)nc2C1 (centres unmarked) [Compound 387, 1-[6-acetyl-3-(1-methyl-1H-pyrazol-4-yl)-5H,6H,7H,8H-pyrido[3,4-b]pyrazin-2-yl]-N-[(2,4-difluorophenyl)methyl]-N-methylpyrrolidine-3-carboxamide] |  |
| 100 to 1000 nM | 1000 to 30000 nM |  |  | CC(C)(O)[C@@H](O)c1cc2nc(-c3cnn(C4CC4)c3)c(N3CCN(Cc4ccccc4F)CC3)nc2cn1 (single isomer, unassigned) [Compound 746] |  |
|  |  | 100 to 1000 nM | 1000 to 30000 nM | CCn1ccc(-c2nc3c(nc2N2CCC(Oc4ccc(F)cc4F)CC2)CCN(C(C)=O)C3)n1 [Compound 448, 1-{2-[4-(2,4-difluorophenoxy)piperidin-1-yl]-3-(1-ethyl-1H-pyrazol-3-yl)-5H,6H,7H,8H-pyrido[3,4-b]pyrazin-6-yl}ethan-1-one] |  |
| 100 to 1000 nM | 100 to 1000 nM |  |  | Cn1cc(-c2nc3cc([C@@](C)(O)C(C)(C)O)ncc3nc2N2CCN(Cc3ccc(F)cc3F)CC2)cn1 (single isomer, unassigned) [Compound 772] |  |
| < 100 nM | 100 to 1000 nM |  |  | COCC(O)c1cc2nc(-c3cnn(C)c3)c(N3CCC(Oc4ccc(F)cc4F)CC3)nc2cn1 (centres unmarked) [Compound 644, 1-{3-[4-(2,4-difluorophenoxy)-1-piperidyl]-2-(1-methyl-4-pyrazolyl)-1,4,6-triaza-7-naphthyl}-2-methoxy-1-ethanol] |  |
| 1000 to 30000 nM | 1000 to 30000 nM |  |  | CC(C)(O)[C@H](O)c1cc2nc(-c3cn[nH]c3)c(N3CCN(Cc4ccc(F)cc4F)CC3)nc2cn1 (single isomer, unassigned) [Compound 799] |  |
| 100 to 1000 nM | 1000 to 30000 nM |  |  | CC(C)(O)C(C)(O)c1cc2nc(-c3cnn(C4CC4)c3)c(N3CCC(Oc4ccc(F)cc4F)CC3)nc2cn1 (single isomer, unassigned) [Compound 722] |  |
